In US8835446B2, “Quinazoline derivatives and pharmaceutical compositions thereof” (Nippon Shinyaku Co., Ltd., priority 2005, dated 2014):

Tests used:
Guinea Pigs = test: Test for skin sensitization in guinea pigs (adjuvant and patch test method)
Experimental: The dorsal area of male Hartley guinea pigs (n=5) at the age of 7 weeks was shaved with an electric shaver, and on the following day, primary sensitization was initiated. In the primary sensitization, emulsified complete Freund's adjuvant was intradermally administered at a dose of 0.1 ml only at the initial time, and an adhesive plaster for a patch test spread with 0.1 g of an ointment containing a test compound at 1%, was applied in an occluded state to the site where the adjuvant was intradermally administered. As a base of the ointment, petrolatum containing sorbitan sesquioleate (a surfactant) at 1% was used. At 24 hours after the adhesive plaster for a patch test was applied, the adhesive plaster was removed, and the application site was cleaned by wiping. The procedure of this primary sensitization was performed once daily and continued for a total of 3 days. On 7 days after the initial application of the primary sensitization, secondary sensitization was performed. The site subjected to the primary sensitization was shaved, and an ointment containing sodium lauryl sulfate at 10% was applied thereto in an open state. After 24 hours, the application site was cleaned by wiping, and a lint cloth spread with 0.2 g of the ointment containing a test compound at 1% was applied, thereto in an occluded state. At 48 hours after the lint cloth was applied, the cloth was removed, and the application site was cleaned by wiping. Challenge was performed on 13 days after initiation of the secondary sensitization. The dorsal area and flank area were shaved, and 0.01 g of the ointment containing a test compound at 1% was applied to the challenge site and left for about 24 hours. At about 24 hours and 48 hours after the challenge, observation of the skin surface was performed, and the presence or absence of sensitizing was determined. The determination was carried out by scoring according to the evaluation criteria (see Table 1) of the Draize method (1959).
In this connection, as a positive control, 1-chloro-2,4-dinitrobenzene (DNCB) (sensitization: 1%, challenge: 0.1%) was used. As the test compound, the compounds of Example 58 and Example 248 were used. As a comparative control, 4-[((1S,2R)-2-{[amino(imino)methyl]amino}cyclohexyl)amino]-N-isobutyl-6-methylquinazoline-2-carboxamide dihydrochloride described in Example 383 in Patent document 1 (sensitization: 0.1%, induction: 1%) was used.

Rabbits = settings: female, Kbs: JW, rabbit, in vivo, 24 h
Source text: Then, erythema and edema formation at the application site was observed. […] The mean value of the sum of erythema and edema scores was used as a simple primary skin irritation index. […]

Mice [1] = test: Acute toxicity test in mice; format: in vivo, mouse; settings: intravenous, 10 mg/kg; observed for 2 hours
Source text: Male ICR mice at the age of 4 to 6 weeks were used.

Mice [2] = test: Effect on scratching behavior induced by serotonin application in mice; format: in vivo, mouse; settings: counted for 15 minutes
Experimental: To the cervical and dorsal area of male ICR mice (n=3 to 6) at the age of 4 to 6 weeks, 100 μl of a solution obtained by dissolving serotonin hydrochloride in ethanol at 0.1% (hereinafter referred to as serotonin) was applied, and the number of scratching behavior at the application site with the hind legs occurring immediately after the application was counted for 15 minutes after administration with a counter. Administration of a test compound was carried out by skin application, intravenous administration or oral administration. In the case of skin application, the test compound that was dissolved in ethanol was applied in an amount of 100 μl concurrently with serotonin. In the case of intravenous administration, the test compound that was dissolved in physiological saline was administered at a dose of 10 ml/kg at 5 minutes prior to the serotonin application. In the case of oral administration, the test compound that was dissolved in distilled water was administered at a dose of 10 ml/kg at 20 minutes prior to the serotonin application. The control group of each administration route was given the respective solvent, and the values of scratching behavior were compared between the control group and the test compound group.
The results obtained by skin application of the test compound are shown in Table 3; the results obtained by intravenous administration of the test compound are shown in Table 4; and the results obtained by oral administration of the test compound are shown in Table 5.

[3] = positive control, sensitization: 1%, challenge: 0.1%, n=5
[4] = skin application, concentration 0.1% in ethanol, concurrently with serotonin
[5] = oral administration, dose 30 mg/kg, 20 minutes prior to serotonin

Row | SMILES | edema (Draize score, cases) (Guinea Pigs; guinea pig, in vivo) | erythema (Draize score, cases) (Guinea Pigs; male, Hartley, guinea pig, in vivo) | Simple primary skin irritation index (Rabbits) | edema (Draize score, cases) (Guinea Pigs; [3]) | erythema (Draize score, cases) (Guinea Pigs; [3]) | Change in behavior (Mice [1]) | Average number of scratching behavior (Mice [2]; [4]) | Average number of scratching behavior (Mice [2]; [5])
1 | Cc1ccc2nc(C(=O)NCC(C)C)nc(N[C@H]3CCCC[C@H]3NC(=N)N)c2c1.Cl.Cl [Comparative control A, 4-[((1S,2R)-2-{[amino(imino)methyl]amino}cyclohexyl)amino]-N-isobutyl-6-methylquinazoline-2-carboxamide dihydrochloride] | edema was not observed in all the cases | well-defined erythema (score 2) was observed in 2/5 cases | 1.8 |  |  |  |  | 
2 | O=[N+]([O-])c1ccc(Cl)c([N+](=O)[O-])c1 [DNCB, 1-chloro-2,4-dinitrobenzene] |  |  |  | score 1 in 3/5 cases, and score 0 in 2/5 cases | score 3 in 3/5 cases, score 2 in 1/5 cases, and score 1 in 1/5 cases |  |  | 
3 | Cc1ccc2nc(C(=O)NCC(C)C)nc(N[C@H]3CCCC[C@H]3NC(N)=NO)c2c1.Cl.Cl [Example 212, 4-[((1S,2R)-2-{[amino(hydroxyimino)methyl]amino}cyclohexyl)amino]-N-isobutyl-6-methylquinazolin-2-carboxamide dihydrochloride] |  |  | 0.8 |  |  | No obvious change | 49.8 | 
4 | COCCCNC(=O)c1nc(N[C@H]2CCCC[C@H]2NC(N)=NOC)c2cc(C)ccc2n1.Cl.Cl [Example 239, 4-[((1S,2R)-2-{[amino(methoxyimino)methyl]amino}cyclohexyl)amino]-N-(3-methoxypropyl)-6-methylquinazolin-2-carboxamide dihydrochloride] |  |  | 1.0 |  |  | No obvious change | 55.8 | 88.6
5 | COCCCNC(=O)c1nc(N[C@H]2CCCC[C@H]2NC(N)=NO)c2cc(C)ccc2n1.Cl.Cl [Example 240, 4-[((1S,2R)-2-{[amino(hydroxyimino)methyl]amino}cyclohexyl)amino]-N-(3-methoxypropyl)-6-methylquinazolin-2-carboxamide dihydrochloride] |  |  | 1.0 |  |  | No obvious change | 65.3 | 95.2
